Laboratory results reported in patent publication US7304174B2, “CaSR antagonist” (Japan Tobacco Inc., priority 2003, dated 2007).

Legend:
[1] = molecular target: T1, human calcium receptor (Homo sapiens, UniProt P41180); test: Evaluation of antagonistic action on calcium receptor using reporter gene (luciferase); assay type: cell-based; details: transformed rat adrenal derived cells, 5 mM calcium chloride, culture 4 hrs, luciferase activity; read-out: Reporter gene assay (IC50, concentration showing 50% inhibitory rate)
T1 construct: expressed in transfected cells; host or cells: cell strain derived from rat adrenal, co-transformed with luciferase cDNA
T1 sequence (P41180 20-1078): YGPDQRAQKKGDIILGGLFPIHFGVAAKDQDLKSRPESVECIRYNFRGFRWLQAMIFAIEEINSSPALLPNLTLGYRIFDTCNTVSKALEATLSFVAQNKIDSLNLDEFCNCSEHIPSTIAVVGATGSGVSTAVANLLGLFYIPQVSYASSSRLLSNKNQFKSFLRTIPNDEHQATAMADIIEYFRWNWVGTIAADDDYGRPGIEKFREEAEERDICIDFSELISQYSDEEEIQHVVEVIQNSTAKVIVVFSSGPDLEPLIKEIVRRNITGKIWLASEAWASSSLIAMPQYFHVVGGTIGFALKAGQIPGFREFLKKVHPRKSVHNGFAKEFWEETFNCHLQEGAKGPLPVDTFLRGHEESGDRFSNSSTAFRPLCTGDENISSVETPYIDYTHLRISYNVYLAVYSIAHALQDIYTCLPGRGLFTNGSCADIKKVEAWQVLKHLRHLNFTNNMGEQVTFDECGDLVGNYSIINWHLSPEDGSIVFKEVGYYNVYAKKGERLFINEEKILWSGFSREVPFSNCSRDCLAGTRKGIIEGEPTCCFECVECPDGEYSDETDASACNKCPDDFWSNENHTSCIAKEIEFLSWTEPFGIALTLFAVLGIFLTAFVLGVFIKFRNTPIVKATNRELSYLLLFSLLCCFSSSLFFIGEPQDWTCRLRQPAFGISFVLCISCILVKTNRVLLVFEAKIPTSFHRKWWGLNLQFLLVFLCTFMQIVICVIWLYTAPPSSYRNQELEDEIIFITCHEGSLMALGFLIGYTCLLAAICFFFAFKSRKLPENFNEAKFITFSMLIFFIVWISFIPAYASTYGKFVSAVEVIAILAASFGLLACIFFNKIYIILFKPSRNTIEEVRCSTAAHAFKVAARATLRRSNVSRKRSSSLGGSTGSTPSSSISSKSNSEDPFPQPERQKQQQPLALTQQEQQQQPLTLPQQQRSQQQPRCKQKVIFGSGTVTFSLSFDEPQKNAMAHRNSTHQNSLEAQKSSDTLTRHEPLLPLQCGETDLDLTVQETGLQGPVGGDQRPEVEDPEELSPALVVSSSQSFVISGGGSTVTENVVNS
Outline: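 Rat adrenal-derived cells transfected with luciferase and human calcium receptor cDNA, in F12 with 0.5% dialyzed horse serum and 0.25% dialyzed fetal bovine serum. Luciferase luminescence gave % inhibition vs control and blank; IC50 at 50% inhibition.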

[2] = molecular target: T2, CYP2D6 (Homo sapiens, UniProt P10635); test: Metabolic enzyme CYP2D6 inhibitory activity (inhibition measurement kit); assay type: in vitro ADME; details: enzyme activity free of test compound as 100%; >10 means over 10 μM
T2 construct: purchased BD Bioscience
Experimental: Using a metabolic enzyme CYP2D6 inhibition measurement kit (BD Bioscience) and following the manual of the kit, the inhibitory activity of the test compound was measured. With the enzyme activity free of the test compound as 100%, the concentration (IC50) showing 50% inhibition was determined. The results are shown in Table 63 and Table 64, wherein “>10” means over 10 μM.

[3] = test system: PTH secretion; test: PTH secretion action, Experimental Example 2 (serum PTH after oral administration); assay type: in vivo, male SD rats; details: test compound administration group, 1 mg/5 ml/kg oral, rats fasted 20 hr
Experimental: The test compound was orally administered to 5 to 9-week-old male SD rats (Charles River Japan, Inc.) fasted for 20 hr, using a solvent (0.5% methyl cellulose solution) at a dose of 1 mg/5 ml/kg. A solvent alone was orally administered to the control group at a dose of 5 ml/kg. The blood was drawn from the tail vein immediately before and, 15 min, 30 min, 60 min and 120 min after the administration of the test compound, and serum was obtained. The serum PTH concentration was measured using rat PTH ELISA kit (Amersham Biosciences).

T2 sequence (P10635 whole entry): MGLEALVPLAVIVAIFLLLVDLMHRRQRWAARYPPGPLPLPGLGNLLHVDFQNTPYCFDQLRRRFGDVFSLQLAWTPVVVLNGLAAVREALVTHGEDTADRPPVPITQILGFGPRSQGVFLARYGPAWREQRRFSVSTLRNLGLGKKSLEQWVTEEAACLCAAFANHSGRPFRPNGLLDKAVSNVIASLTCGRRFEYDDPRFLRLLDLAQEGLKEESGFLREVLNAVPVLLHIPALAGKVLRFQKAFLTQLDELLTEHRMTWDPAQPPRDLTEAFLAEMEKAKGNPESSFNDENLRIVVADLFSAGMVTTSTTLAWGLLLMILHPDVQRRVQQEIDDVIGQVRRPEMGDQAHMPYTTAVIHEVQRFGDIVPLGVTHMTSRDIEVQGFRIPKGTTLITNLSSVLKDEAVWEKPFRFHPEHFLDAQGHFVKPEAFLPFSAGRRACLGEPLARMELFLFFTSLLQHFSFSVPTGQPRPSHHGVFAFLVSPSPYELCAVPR

IC50 [1] [nM]	Compound	also measured
21	CC(OC[C@H](O)CNC(C)(C)Cc1ccc2ccccc2c1)c1ccccc1OCc1ccccc1C(=O)O (some centres unmarked) [2-20′]	IC50 [2]: > 10000 nM
13	Cc1cc(-c2ccccc2[C@@H](C)OC[C@H](O)CNC(C)(C)Cc2ccc(Cl)c(F)c2)ccc1C(=O)O [Example 1-2, 2′-[(1R)-[(2R)-3-[[1-(4-Chloro-3-fluorophenyl)-2-methylpropan-2-yl]amino]-2-hydroxypropoxy]ethyl]-3-methylbiphenyl-4-carboxylic acid]	Serum PTH concentration 15 min later [3]: 28.5 ± 5.3 pg/mL; Serum PTH concentration 30 min later [3]: 27.1 ± 2.3 pg/mL; Serum PTH concentration 60 min later [3]: 10.5 ± 1.3 pg/mL; Serum PTH concentration 120 min later [3]: 12.4 ± 1.6 pg/mL
10	Cc1ccc(CC(C)(C)NC[C@@H](O)CO[C@H](C)c2ccccc2-c2ccc(C(=O)O)c(C)c2)cc1Cl [Example 1-3, 2′-[1-[(2R)-3-[[1-(3-chloro-4-methylphenyl)-2-methylpropan-2-yl]amino]-2-hydroxypropoxy]ethyl]-3-methylbiphenyl-4-carboxylic acid]	Serum PTH concentration 15 min later [3]: 23.8 ± 1.6 pg/mL; Serum PTH concentration 30 min later [3]: 25.1 ± 3.9 pg/mL; Serum PTH concentration 60 min later [3]: 9.5 ± 0.5 pg/mL; Serum PTH concentration 120 min later [3]: 11.6 ± 0.9 pg/mL
20	Cc1cc(-c2ccccc2[C@@H](C)OC[C@H](O)CNC(C)(C)Cc2ccc(Cl)cc2F)ccc1C(=O)O [Example 1-6, 2′-[1-[(2R)-3-[[1-(4-chloro-2-fluorophenyl)-2-methylpropan-2-yl]amino]-2-hydroxypropoxy]ethyl]-3-methylbiphenyl-4-carboxylic acid]	Serum PTH concentration 15 min later [3]: 28.9 ± 6.9 pg/mL; Serum PTH concentration 30 min later [3]: 19.2 ± 3.1 pg/mL; Serum PTH concentration 60 min later [3]: 10.0 ± 1.7 pg/mL; Serum PTH concentration 120 min later [3]: 8.3 ± 0.6 pg/mL
14	COc1cc(-c2ccccc2[C@@H](C)OC[C@H](O)CNC(C)(C)Cc2ccc3ccccc3c2)ccc1C(=O)O [Example 1-26, 2′-[1-[(2R)-3-[[1-(naphthalen-2-yl)-2-methylpropan-2-yl]amino]-2-hydroxypropoxy]ethyl]-3-methoxybiphenyl-4-carboxylic acid]	IC50 [2]: > 10000 nM
14	COc1cc(C(=O)O)ccc1-c1ccccc1[C@@H](C)OC[C@H](O)CNC(C)(C)Cc1ccc2ccccc2c1 [Example 1-27, 2′-[1-[(2R)-3-[[1-(naphthalen-2-yl)-2-methylpropan-2-yl]amino]-2-hydroxypropoxy]ethyl]-2-methoxybiphenyl-4-carboxylic acid]	IC50 [2]: > 10000 nM
7	CCc1cc(-c2ccccc2[C@@H](C)OC[C@H](O)CNC(C)(C)Cc2ccc3ccccc3c2)ccc1C(=O)O [Example 1-30, 3-ethyl-2′-[1-[(2R)-3-[[1-(naphthalen-2-yl)-2-methylpropan-2-yl]amino]-2-hydroxypropoxy]ethyl]biphenyl-4-carboxylic acid]	Serum PTH concentration 15 min later [3]: 26.1 ± 2.3 pg/mL; Serum PTH concentration 30 min later [3]: 24.2 ± 3.3 pg/mL; Serum PTH concentration 60 min later [3]: 18.2 ± 1.3 pg/mL; Serum PTH concentration 120 min later [3]: 13.8 ± 0.6 pg/mL
65	Cc1ccc(CC(C)(C)NC[C@@H](O)CO[C@H](C)c2ccccc2OCc2ccc(C(=O)O)cc2F)cc1F [Example 2-25, 3-fluoro-4-[[2-[1-[(2R)-3-[[1-(3-fluoro-4-methylphenyl)-2-methylpropan-2-yl]amino]-2-hydroxypropoxy]ethyl]phenoxy]methyl]benzoic acid]	–
24	Cc1ccc(CC(C)(C)NC[C@@H](O)CO[C@H](C)c2ccccc2OCc2ccc(C(=O)O)cc2C)cc1F [Example 2-26, 4-[[2-[1-[(2R)-3-[[1-(3-fluoro-4-methylphenyl)-2-methylpropan-2-yl]amino]-2-hydroxypropoxy]ethyl]phenoxy]methyl]-3-methylbenzoic acid]	–
27	COc1cc(C(=O)O)cc(OC)c1Oc1ccccc1C(C)OC[C@H](O)CNC(C)(C)Cc1ccc(C)c(F)c1 (stereo partly drawn) [Example 2-27, 4-[2-[1-[(2R)-3-[[1-(3-fluoro-4-methylphenyl)-2-methylpropan-2-yl]amino]-2-hydroxypropoxy]ethyl]phenoxy]-3,5-dimethoxybenzoic acid]	–
3	Cc1ccc(CC(C)(C)NC[C@@H](O)CO[C@H](C)c2ccccc2Oc2ccc(C(=O)O)cc2[N+](=O)[O-])cc1F [Example 2-28, 4-[2-[1-[(2R)-3-[[1-(3-fluoro-4-methylphenyl)-2-methylpropan-2-yl]amino]-2-hydroxypropoxy]ethyl]phenoxy]-3-nitrobenzoic acid]	–
11	Cc1ccc(CC(C)(C)NC[C@@H](O)CO[C@H](C)c2ccccc2Oc2ccc(C(=O)O)c([N+](=O)[O-])c2)cc1F [Example 2-29, 4-[2-[1-[(2R)-3-[[1-(3-fluoro-4-methylphenyl)-2-methylpropan-2-yl]amino]-2-hydroxypropoxy]ethyl]phenoxy]-2-nitrobenzoic acid]	–
3	Cc1ccc(CC(C)(C)NC[C@@H](O)CO[C@H](C)c2ccccc2Oc2ccc(C(=O)O)cc2Cl)cc1F [Example 2-30, 4-[2-[1-[(2R)-3-[[1-(3-fluoro-4-methylphenyl)-2-methylpropan-2-yl]amino]-2-hydroxypropoxy]ethyl]phenoxy]-3-chlorobenzoic acid]	–
16	Cc1ccc(CC(C)(C)NC[C@@H](O)CO[C@H](C)c2ccccc2Oc2ccc(C(=O)O)c(Cl)c2)cc1F [Example 2-31, 4-[2-[1-[(2R)-3-[[1-(3-fluoro-4-methylphenyl)-2-methylpropan-2-yl]amino]-2-hydroxypropoxy]ethyl]phenoxy]-2-chlorobenzoic acid]	–
14	Cc1ccc(CC(C)(C)NC[C@@H](O)CO[C@H](C)c2ccccc2Oc2ccc(C(=O)O)c(C(F)(F)F)c2)cc1F [Example 2-32, 4-[2-[1-[(2R)-3-[[1-(3-fluoro-4-methylphenyl)-2-methylpropan-2-yl]amino]-2-hydroxypropoxy]ethyl]phenoxy]-2-trifluoromethylbenzoic acid]	–
2	Cc1ccc(CC(C)(C)NC[C@@H](O)CO[C@H](C)c2ccccc2Oc2ccc(C(=O)O)cc2C(F)(F)F)cc1F [Example 2-33, 4-[2-[1-[(2R)-3-[[1-(3-fluoro-4-methylphenyl)-2-methylpropan-2-yl]amino]-2-hydroxypropoxy]ethyl]phenoxy]-3-trifluoromethylbenzoic acid]	–
6	Cc1ccc(CC(C)(C)NC[C@@H](O)CO[C@H](C)c2ccccc2Oc2ccc(C(=O)O)cc2F)cc1F [Example 2-34, 4-[2-[1-[(2R)-3-[[1-(3-fluoro-4-methylphenyl)-2-methylpropan-2-yl]amino]-2-hydroxypropoxy]ethyl]phenoxy]-3-fluorobenzoic acid]	–
11	C[C@@H](OC[C@H](O)CNC(C)(C)Cc1ccc(Cl)c(F)c1)c1ccccc1Oc1ccc(C(=O)O)cc1 [Example 2-35, 4-[2-[1-[(2R)-3-[[1-(4-chloro-3-fluorophenyl)-2-methylpropan-2-yl]amino]-2-hydroxypropoxy]ethyl]phenoxy]benzoic acid]	–
13	Cc1cc(C(=O)O)ccc1Oc1ccccc1C(C)OC[C@H](O)CNC(C)(C)Cc1ccc(Cl)c(F)c1 (stereo partly drawn) [Example 2-36, 4-[2-[1-[(2R)-3-[[1-(4-chloro-3-fluorophenyl)-2-methylpropan-2-yl]amino]-2-hydroxypropoxy]ethyl]phenoxy]-5-methylbenzoic acid]	–
